Laboratory results taken from patent US12528814B2, “Bifunctional degraders of interleukin-1 receptor-associated kinases and therapeutic use thereof” (NURIX THERAPEUTICS, INC., priority 2020, dated 2026).

Tests used:
IRAK4 [1] = biological target: T1, IRAK4 (Homo sapiens (Human), UniProt Q9NWZ3); assay: IRAK4 Biochemical HTRF Kinase Assay; conditions: Table 5; multiple runs; read-out: IRAK4 HTRF biochemical: IC50
Procedure, shortened: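 HTRF KinEASE STK S1 format measuring IRAK4 phosphorylation of biotinylated peptide; reaction solution of 5 μM STK-S1, 10 mM ATP, 10 mM MgCl2 added (stock, to 10 μl final), 90 min at ambient temperature, detection 60 min. IC50 from sixteen-point duplicate curves by non-linear regression.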
Target sequence in this assay (Q9NWZ3 whole entry, species assumed): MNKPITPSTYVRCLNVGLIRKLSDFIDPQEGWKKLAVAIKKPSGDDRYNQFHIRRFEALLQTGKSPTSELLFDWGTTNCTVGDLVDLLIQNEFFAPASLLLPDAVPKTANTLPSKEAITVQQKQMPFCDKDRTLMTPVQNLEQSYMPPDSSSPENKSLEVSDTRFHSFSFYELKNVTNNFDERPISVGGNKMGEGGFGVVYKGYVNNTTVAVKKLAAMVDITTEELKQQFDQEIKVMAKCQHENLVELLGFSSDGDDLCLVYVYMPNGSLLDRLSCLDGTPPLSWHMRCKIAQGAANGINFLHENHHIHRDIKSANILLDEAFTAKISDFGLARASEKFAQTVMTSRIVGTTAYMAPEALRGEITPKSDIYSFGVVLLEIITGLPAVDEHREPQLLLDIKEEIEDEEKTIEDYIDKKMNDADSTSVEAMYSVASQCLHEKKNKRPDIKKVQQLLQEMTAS

IRAK4 [2] = biological target: T1, IRAK4; assay: IRAK4 Degradation HiBiT Assay; conditions: multiple runs, HiBiT-tagged Jurkat cells, 4 hrs; for Dmax: Jurkat, read-out: Cellular IRAK4 HiBiT: Dmax, Table 5; for DC50: read-out: Cellular IRAK4 HiBiT: DC50, Table 5
Target sequence in this assay (Q9NWZ3 whole entry): as the sequence (Q9NWZ3 whole entry, species assumed) above

Row | SMILES | IC50 (IRAK4 [1]) [nM] | Dmax (IRAK4 [2]) [%] | DC50 (IRAK4 [2]) [nM]
1 | CNc1cc(-c2ccc3cc(C#N)cnn23)ncc1-c1nnc([C@H]2CC[C@H](N(C)C(=O)Cc3ccc4c(c3)CN(C3CCC(=O)NC3=O)C4=O)CC2)s1 (stereo partly drawn) [Example 168, N-((1r,4r)-4-(5-(6-(3-cyanopyrrolo[1,2-b]pyridazin-7-yl)-4-(methylamino)pyridin-3-yl)-1,3,4-thiadiazol-2-yl)cyclohexyl)-2-(2-(2,6-dioxopiperidin-3-yl)-1-oxoisoindolin-5-yl)-N-methylacetamide] | 0.6 | 20 | 2.63
2 | CNc1cc(-c2ccc3cc(C#N)cnn23)ncc1-c1nnc([C@H]2CC[C@H](N(C)C(=O)C3CCN(c4ccc5c(c4)C(=O)N(C4CCC(=O)NC4=O)C5=O)CC3)CC2)s1 (stereo partly drawn) [Example 169, N-((1r,4r)-4-(5-(6-(3-cyanopyrrolo[1,2-b]pyridazin-7-yl)-4-(methylamino)pyridin-3-yl)-1,3,4-thiadiazol-2-yl)cyclohexyl)-1-(2-(2,6-dioxopiperidin-3-yl)-1,3-dioxoisoindolin-5-yl)-N-methylpiperidine-4-carboxamide] | 0.8 | 104 | 32
3 | CNc1cc(-c2ccc3cc(C#N)cnn23)ncc1-c1nnc([C@H]2CC[C@H](N(C)CC3CCN(c4ccc5c(=O)n(C6CCC(=O)NC6=O)ccc5c4)CC3)CC2)s1 (stereo partly drawn) [Example 170, 7-(5-(5-((1r,4r)-4-(((1-(2-(2,6-dioxopiperidin-3-yl)-1-oxo-1,2-dihydroisoquinolin-6-yl)piperidin-4-yl)methyl)(methyl)amino)cyclohexyl)-1,3,4-thiadiazol-2-yl)-4-(methylamino)pyridin-2-yl)pyrrolo[1,2-b]pyridazine-3-carbonitrile] | 0.5 | 103 | 29.3
4 | CNc1cc(-c2ccc3cc(C#N)cnn23)ncc1-c1nnc([C@H]2CC[C@H](N(C)C[C@@H]3CCN(c4ccc5c(c4)C(=O)N(C4CCC(=O)NC4=O)C5=O)C3)CC2)s1 (stereo partly drawn) [Example 171, 7-(5-(5-((1S,4r)-4-((((3S)-1-(2-(2,6-dioxopiperidin-3-yl)-1,3-dioxoisoindolin-5-yl)pyrrolidin-3-yl)methyl)(methyl)amino)cyclohexyl)-1,3,4-thiadiazol-2-yl)-4-(methylamino)pyridin-2-yl)pyrrolo[1,2-b]pyridazine-3-carbonitrile] | 0.4 | 77 | 12.9
5 | CNc1cc(-c2ccc3cc(C#N)cnn23)ncc1-c1nnc([C@H]2CC[C@H](NC(=O)CCC(=O)N[C@H](C(=O)N3C[C@H](O)C[C@H]3C(=O)N[C@@H](C)c3ccc(Br)cc3)C(C)(C)C)CC2)s1 [Example 172, N1—((S)-1-((2S,4R)-2-(((S)-1-(4-bromophenyl)ethyl)carbamoyl)-4-hydroxypyrrolidin-1-yl)-3,3-dimethyl-1-oxobutan-2-yl)-N4-((1r,4S)-4-(5-(6-(3-cyanopyrrolo[1,2-b]pyridazin-7-yl)-4-(methylamino)pyridin-3-yl)-1,3,4-thiadiazol-2-yl)cyclohexyl)succinamide] | 1.5 | 28 | 2520
6 | CNc1cc(-c2ccc3cc(C#N)cnn23)ncc1-c1nnc([C@H]2CC[C@H](NC(=O)CCC(=O)N[C@H](C(=O)N3C[C@H](O)C[C@H]3C(=O)N[C@@H](C)c3ccccc3)C(C)(C)C)CC2)s1 [Example 173, N1-((1r,4S)-4-(5-(6-(3-cyanopyrrolo[1,2-b]pyridazin-7-yl)-4-(methylamino)pyridin-3-yl)-1,3,4-thiadiazol-2-yl)cyclohexyl)-N4—((S)-1-((2S,4R)-4-hydroxy-2-(((S)-1-phenylethyl)carbamoyl)pyrrolidin-1-yl)-3,3-dimethyl-1-oxobutan-2-yl)succinamide] | 0.4 | 16 | 612
7 | CNc1cc(-c2ccc3cc(C#N)cnn23)ncc1-c1nnc([C@H]2CC[C@H](N(C)C(=O)CCC(=O)N[C@H](C(=O)N3C[C@H](O)C[C@H]3C(=O)N[C@@H](C)c3ccccc3)C(C)(C)C)CC2)s1 [Example 174, N1-((1r,4S)-4-(5-(6-(3-cyanopyrrolo[1,2-b]pyridazin-7-yl)-4-(methylamino)pyridin-3-yl)-1,3,4-thiadiazol-2-yl)cyclohexyl)-N4—((S)-1-((2S,4R)-4-hydroxy-2-(((S)-1-phenylethyl)carbamoyl)pyrrolidin-1-yl)-3,3-dimethyl-1-oxobutan-2-yl)-N1-methylsuccinamide] | 0.6 | 34 | 1340
8 | CNc1cc(-c2ccc3cc(C#N)cnn23)ncc1-c1nnc(N2CCN(C(=O)C3CC4(CCN(c5ccc6c(c5)C(=O)N(C5CCC(=O)NC5=O)C6=O)C4)C3)CC2)s1 (stereo not drawn) [Example 175, 7-(5-(5-(4-(6-(2-(2,6-dioxopiperidin-3-yl)-1,3-dioxoisoindolin-5-yl)-6-azaspiro[3.4]octane-2-carbonyl)piperazin-1-yl)-1,3,4-thiadiazol-2-yl)-4-(methylamino)pyridin-2-yl)pyrrolo[1,2-b]pyridazine-3-carbonitrile] | 0.5 | 91 | 19.1
9 | CNc1cc(-c2ccc3cc(C#N)cnn23)ncc1-c1nnc(N2CC3(CCN(C(=O)C4CCN(c5ccc6c(c5)C(=O)N(C5CCC(=O)NC5=O)C6=O)CC4)CC3)C2)s1 (stereo not drawn) [Example 176, 7-(5-(5-(7-(1-(2-(2,6-dioxopiperidin-3-yl)-1,3-dioxoisoindolin-5-yl)piperidine-4-carbonyl)-2,7-diazaspiro[3.5]nonan-2-yl)-1,3,4-thiadiazol-2-yl)-4-(methylamino)pyridin-2-yl)pyrrolo[1,2-b]pyridazine-3-carbonitrile] | 0.5 | 105 | 31.5
10 | CNc1cc(-c2ccc3cc(C#N)cnn23)ncc1-c1nnc(N2CC3(CCN(C(=O)CN4CCN(c5ccc6c(c5)C(=O)N(C5CCC(=O)NC5=O)C6=O)CC4)CC3)C2)s1 (stereo not drawn) [Example 177, 7-(5-(5-(7-(2-(4-(2-(2,6-dioxopiperidin-3-yl)-1,3-dioxoisoindolin-5-yl)piperazin-1-yl)acetyl)-2,7-diazaspiro[3.5]nonan-2-yl)-1,3,4-thiadiazol-2-yl)-4-(methylamino)pyridin-2-yl)pyrrolo[1,2-b]pyridazine-3-carbonitrile] | 0.5 | 105 | 14.8
11 | CNc1cc(-c2ccc3cc(C#N)cnn23)ncc1-c1nnc(N2CC3(CCN(C(=O)C[C@H](NC(=O)[C@@H]4C[C@@H](O)CN4C(=O)[C@@H](NC(=O)C4(F)CC4)C(C)(C)C)c4ccc(-c5scnc5C)cc4)CC3)C2)s1 [Example 178] | 0.7 | 113 | 42.8
12 | CNc1cc(-c2ccc3cc(C#N)cnn23)ncc1-c1nnc(N2CC3(CCN(C(=O)COc4cc(-c5scnc5C)ccc4CNC(=O)[C@@H]4C[C@@H](O)CN4C(=O)[C@@H](NC(=O)C4(F)CC4)C(C)(C)C)CC3)C2)s1 [Example 179, (2S,4R)—N-(2-(2-(2-(5-(6-(3-cyanopyrrolo[1,2-b]pyridazin-7-yl)-4-(methylamino)pyridin-3-yl)-1,3,4-thiadiazol-2-yl)-2,7-diazaspiro[3.5]nonan-7-yl)-2-oxoethoxy)-4-(4-methylthiazol-5-yl)benzyl)-1-((S)-2-(1-fluorocyclopropane-1-carboxamido)-3,3-dimethylbutanoyl)-4-hydroxypyrrolidine-2-carboxamide] | 0.7 | 85 | 57
13 | CNc1cc(-c2ccc3cc(C#N)cnn23)ncc1-c1nnc(N2CC3CCC(C2)N3C(=O)C[C@H](NC(=O)[C@@H]2C[C@@H](O)CN2C(=O)[C@@H](NC(=O)C2(F)CC2)C(C)(C)C)c2ccc(-c3scnc3C)cc2)s1 [Example 180, (2S,4R)—N-((1S)-3-(3-(5-(6-(3-cyanopyrrolo[1,2-b]pyridazin-7-yl)-4-(methylamino)pyridin-3-yl)-1,3,4-thiadiazol-2-yl)-3,8-diazabicyclo[3.2.1]octan-8-yl)-1-(4-(4-methylthiazol-5-yl)phenyl)-3-oxopropyl)-1-((S)-2-(1-fluorocyclopropane-1-carboxamido)-3,3-dimethylbutanoyl)-4-hydroxypyrrolidine-2-carboxamide] | 0.5 | 110 | 91.6
14 | CNc1cc(-c2ccc3cc(C#N)cnn23)ncc1-c1nnc(N2CC3(CCN(C[C@@H]4CCN(c5ccc6c(c5)C(=O)N(C5CCC(=O)NC5=O)C6=O)C4)CC3)C2)s1 (stereo partly drawn) [Example 181, 7-(5-(5-(7-(((3S)-1-(2-(2,6-dioxopiperidin-3-yl)-1,3-dioxoisoindolin-5-yl)pyrrolidin-3-yl)methyl)-2,7-diazaspiro[3.5]nonan-2-yl)-1,3,4-thiadiazol-2-yl)-4-(methylamino)pyridin-2-yl)pyrrolo[1,2-b]pyridazine-3-carbonitrile] | 0.6 | 41 | 6.94
15 | CNc1cc(-c2ccc3cc(C#N)cnn23)ncc1-c1nnc(N2CC3(CCN(CC4CCN(c5ccc(C(=O)NC6CCC(=O)NC6=O)cc5)CC4)CC3)C2)s1 (stereo not drawn) [Example 182, 4-(4-((2-(5-(6-(3-cyanopyrrolo[1,2-b]pyridazin-7-yl)-4-(methylamino)pyridin-3-yl)-1,3,4-thiadiazol-2-yl)-2,7-diazaspiro[3.5]nonan-7-yl)methyl)piperidin-1-yl)-N-(2,6-dioxopiperidin-3-yl)benzamide] | 0.5 | 120 | 159
